Read-outs that look alike come from different tables or passages of the source.
Tested on: Mycosphaerella graminicola; Anamorph: Septoria tritici; Bayer Code SEPTTR
Assay: Leaf blotch of wheat, foliar fungicide treatment, one day protectant (1DP) or three day curative (3DC)
Format: in vivo, Septoria tritici on wheat plants (variety Yuma)
Settings: Zymoseptoria tritici, rating of percent disease control
[1] = 24 h, one day protectant, read-out: SETTTR 1DP 25 ppm
[2] = 24 h, one day protectant, read-out: SEPTTR 1DP 100 ppm
[3] = 72 h, three day curative, read-out: SEPTTR 3DC 25 ppm
[4] = 72 h, three day curative, read-out: SEPTTR 3DC 100 ppm

Row | Compound | pest or weed control at 25 ppm [1] [%] | pest or weed control at 100 ppm [2] [%] | pest or weed control at 25 ppm [3] [%] | pest or weed control at 100 ppm [4] [%]
1 | Cc1ccc(COc2ncc(F)c(NC(=S)NCc3ccccc3F)n2)cc1 [Compound 670] | 51 to 75 | 76 to 100 | 51 to 75 | 76 to 100
2 | Cc1ccc(S(=O)(=O)Oc2ncc(F)c(N)n2)cc1 [Compound 671] | 76 to 100 | 76 to 100 | 76 to 100 | 76 to 100
3 | O=C(CCl)Nc1nc(OCc2ccc(F)cc2)ncc1F [Compound 672] | 76 to 100 | 76 to 100 | 76 to 100 | 76 to 100
4 | CSc1ccc(COc2ncc(F)c(N)n2)cc1 [Compound 673] | 76 to 100 | 76 to 100 | 76 to 100 | 76 to 100
5 | CC[Si](CC)(CC)Nc1nc(OC(C)c2ccc(F)cc2)ncc1F (stereo not drawn) [Compound 674] | 76 to 100 | 76 to 100 | 76 to 100 | 76 to 100
6 | CCOCNc1nc(OCc2ccc(C)cc2)ncc1F [Compound 675] | 76 to 100 | 76 to 100 | 76 to 100 | 76 to 100
7 | COc1ccccc1COc1ncc(F)c(NC(=O)c2ccccc2)n1 [Compound 676] | 26 to 50 | 76 to 100 | 0 to 25 | 0 to 25
8 | OCNc1nc(OCc2ccccc2)ncc1F [Compound 677] | 76 to 100 | 76 to 100 | 76 to 100 | 76 to 100
9 | CCCNC(=S)Nc1nc(OCc2ccccc2)ncc1F [Compound 678] | 0 to 25 | 76 to 100 | 26 to 50 | 76 to 100
10 | Fc1cnc(OCc2ccccc2)nc1/N=C/N1CCc2ccccc2C1 [Compound 679] | 76 to 100 | 76 to 100 | 76 to 100 | 76 to 100
11 | COc1ccc(OC)c(COc2ncc(F)c(NSc3ccccc3[N+](=O)[O-])n2)c1 [Compound 680] | 0 to 25 | 0 to 25 | 26 to 50 | 26 to 50
12 | Cc1ccc(COc2ncc(F)c(-n3ccnc3)n2)cc1 [Compound 681] | 76 to 100 | 76 to 100 | 76 to 100 | 76 to 100
13 | Nc1nc(OCc2cc(Cl)nc(Cl)c2)ncc1F [Compound 682] | 76 to 100 | 76 to 100 | 76 to 100 | 76 to 100
14 | Fc1cccc(COc2ncc(F)c(/N=C/N3CCOCC3)n2)c1 [Compound 684] | 76 to 100 | 76 to 100 | 76 to 100 | 76 to 100
15 | COc1cc(COc2ncc(F)c(NSc3ccccc3[N+](=O)[O-])n2)cc(OC)c1 [Compound 685] | 0 to 25 | 76 to 100 | 0 to 25 | 0 to 25
16 | Fc1ccc(COc2ncc(F)c(-n3ccnc3)n2)cc1 [Compound 688] | 76 to 100 | 76 to 100 | 76 to 100 | 76 to 100
17 | Nc1nc(OCc2ccc(Cl)cc2)ncc1F [Compound 689] | 76 to 100 | 76 to 100 | 76 to 100 | 76 to 100
18 | N#Cc1cccc(COc2ncc(F)c(NC(=O)OCc3ccccc3)n2)c1 [Compound 690] | 51 to 75 | 76 to 100 | 76 to 100 | 76 to 100
19 | Cc1cc(C)c(COc2ncc(F)c(N)n2)cc1C [Compound 691] | 51 to 75 | 76 to 100 | 51 to 75 | 76 to 100
20 | COc1cccc(COc2ncc(F)c(/N=C/N(C)C)n2)c1 [Compound 692] | 76 to 100 | 76 to 100 | 76 to 100 | 76 to 100
21 | Nc1nc(OCc2cc(F)c(F)c(F)c2F)ncc1F [Compound 693] | 76 to 100 | 76 to 100 | 76 to 100 | 76 to 100
22 | CCCCCCOc1ncc(F)c(NC(C)=O)n1 [Compound 695] | 0 to 25 | 76 to 100 | 0 to 25 | 26 to 50
23 | CC(C)(C)c1ccc(COc2ncc(F)c(N)n2)cc1 [Compound 696] | 76 to 100 | 76 to 100 | 51 to 75 | 76 to 100

Row | Compound | pest or weed control at 25 ppm [1] [%] | pest or weed control at 100 ppm [2] [%] | pest or weed control at 25 ppm [3] [%] | pest or weed control at 100 ppm [4] [%]
24 | O=C(Nc1ccsc1)Nc1nc(OCCc2ccc(Cl)cc2)ncc1F [Compound 697] | 0 to 25 | 0 to 25 | 26 to 50 | 26 to 50
25 | COc1ccc(COc2ncc(F)c(N)n2)c(Cl)c1OC [Compound 698] | 76 to 100 | 76 to 100 | 76 to 100 | 76 to 100
26 | Nc1nc(OCc2cnccn2)ncc1F [Compound 699] | 76 to 100 | 76 to 100 | 51 to 75 | 76 to 100
27 | Fc1ccc(COc2ncc(F)c(N/N=C/c3ccccc3Cl)n2)cc1 [Compound 700] | 0 to 25 | 51 to 75 | 26 to 50 | 76 to 100
28 | Cc1ccc(COc2ncc(F)c(NNC3CCCCC3)n2)cc1 [Compound 701] | 0 to 25 | 76 to 100 | 0 to 25 | 76 to 100
29 | CC[Si](CC)(CC)Nc1nc(OCc2ccc(OC)c(F)c2)ncc1F [Compound 702] | 76 to 100 | 76 to 100 | 76 to 100 | 76 to 100
30 | O=C(Nc1nc(OCc2ccc(F)cc2)ncc1F)c1cccc(CBr)c1 [Compound 703] | 0 to 25 | 26 to 50 | 0 to 25 | 0 to 25
31 | COc1cccc(COc2ncc(F)c(/N=C/N3CCOCC3)n2)c1 [Compound 704] | 76 to 100 | 76 to 100 | 76 to 100 | 76 to 100
32 | Nc1nc(OCc2ccc(C(F)(F)F)cc2)ncc1F [Compound 705] | 76 to 100 | 76 to 100 | 51 to 75 | 76 to 100
33 | CCCNC(=S)Nc1nc(OCc2cccc(C#N)c2)ncc1F [Compound 706] | 0 to 25 | 76 to 100 | 0 to 25 | 51 to 75
34 | CCCCOc1cccc(COc2ncc(F)c(N)n2)c1 [Compound 708] | 76 to 100 | 76 to 100 | 76 to 100 | 76 to 100
35 | COc1ccc(COc2ncc(F)c(NCOCc3ccccc3)n2)cc1F [Compound 709] | 0 to 25 | 76 to 100 | 0 to 25 | 51 to 75
36 | Fc1ccccc1NC(=S)Nc1nc(OCc2cccs2)ncc1F [Compound 711] | 51 to 75 | 76 to 100 | 26 to 50 | 76 to 100
37 | Nc1nc(OCc2ccccc2F)ncc1F [Compound 713] | 76 to 100 | 76 to 100 | 51 to 75 | 76 to 100
38 | CC(=O)Nc1nc(OC(C)c2ccc(F)cc2)ncc1F (stereo not drawn) [Compound 714] | 76 to 100 | 76 to 100 | 76 to 100 | 76 to 100
39 | Nc1nc(Oc2cccc([N+](=O)[O-])c2)ncc1F [Compound 715] | 26 to 50 | 51 to 75 | 0 to 25 | 0 to 25
40 | Cc1cccc(Oc2ccc(COc3ncc(F)c(N)n3)cc2)c1 [Compound 716] | 76 to 100 | 76 to 100 | 76 to 100 | 76 to 100
41 | Cc1ccc(CNc2nc(OCc3ccc(C)cc3)ncc2F)cc1 [Compound 717] | 51 to 75 | 76 to 100 | 76 to 100 | 76 to 100
42 | C/C(=N\Nc1nc(OCc2ccc(C)cc2)ncc1F)c1ccc(C)o1 [Compound 718] | 26 to 50 | 76 to 100 | 26 to 50 | 26 to 50
43 | Nc1nc(OCC2CC2)ncc1F [Compound 722] | 0 to 25 | 0 to 25 | 0 to 25 | 26 to 50
44 | CCCNC(=O)Nc1nc(OCc2ccccc2OC)ncc1F [Compound 724] | 0 to 25 | 26 to 50 | 0 to 25 | 0 to 25
45 | Nc1nc(OCc2ccc(I)cc2)ncc1F [Compound 725] | 76 to 100 | 76 to 100 | 76 to 100 | 76 to 100

— patent US9204653B2, “5-fluoro pyrimidine derivatives” (DOW AGROSCIENCES LLC, priority 2008, dated 2015)
